In patent US20170240556A1, “BIFLUORODIOXALANE-AMINO-BENZIMIDAZOLE KINASE INHIBITORS FOR THE TREATMENT OF CANCER, AUTOIMMUNEINFLAMMATION AND CNS DISORDERS” (4SC DISCOVERY GMBH, priority 2012, published 2017):
pIC50: −log10 of the molar value.

Tested on: Hedgehog signaling pathway
Test: Hedgehog reporter assay (Gli Reporter - NIH3T3 Cell Line)
Assay type: cell-based
Conditions: Mus musculus; Gli reporter NIH3T3 cells, murine SHH stimulation, 24 h; read-out: HH Assay
Protocol: In order to investigate the potency of test compounds to inhibit the Hedgehog signaling pathway, a Gli-Reporter assay was performed.
The “Gli Reporter—NIH3T3 Cell Line” contains the firefly luciferase gene under the control of Gli responsive elements stably integrated into murine NIH3T3 cells (cells purchased from Amsbio). The luciferase expression correlates with activation of the hedgehog signaling pathway. This cell line is validated for its response to stimulation with murine Sonic Hedgehog and to treatment with inhibitors of the hedgehog signaling pathway. A multiplexed viability assay was used to discriminate inhibition on the pathway activity from cell toxicity.
Growth Medium: DMEM, 10% Calf Serum, 1% Penicillin/Streptomycin 500 μg/ml Geneticin (G418 Stock 50 mg/ml).
25.000 cells per well were seeded into a white 96 well plate in 100 μl growth medium and incubated over night at 37° C. and 5% CO2. After removing the supernatant the test compounds and controls (known GLI inhibitor, e.g. GANT-61) were added in different concentrations in a final volume of 45 μl and incubated for 1 h at 37° C. and 5% CO2. For the stimulation of the Hedgehog pathway 5 μl of 10 μg/ml concentrated murine sonic hedgehog (SHH) was added to the cells. A final concentration of 1 μg/ml mSHH and 0.1% DMSO was reached per well. After incubation for 24 h at 37° C. the cells were investigated for viability and reporter activity.
Viability: For the determination of the viability of the treated cells the CellTiter-Fluor Kit from Promega was used. Essentially, only proteases of viable cells are able to cleave the cell-permeant substrate Gly-Phe-AFCoumarin (GF-AFC). By this cleavage the fluorescent AFC is set free and can be detected in a fluorescence reader. For this assay 10 μl of GF-AFC substrate (CellTiter-Fluor, Promega #G6082) was diluted in 2 ml assay buffer from the CellTiter-Fluor Kit and 10 μl of this dilution was added per well to the cells and incubated for 30 min at 37° C. The fluorescence was measured with excitation at 380-400 nm and emission at 505 nm.
Reporter activity: The firefly luciferase reporter activity was detected with the ONE-Glo™ Luciferase Assay System from Promega. For this assay 50 μl ONE-Glo luciferase reagent (Promega #E6120, contains cell lysis buffer and luciferin) was added to each well and incubated at room temperature for 5 min. Luminescence was detected in a plate reader and served as a degree for reporter activity.

pIC50: ≥ 6.30
SMILES: COc1cccc(C(=O)Nc2nc3cc4c(cc3[nH]2)OC(F)(F)O4)c1 [Compound 56, N-(2,2-difluoro-5H-[1,3]dioxolo[4′,5′:4,5]benzo[1,2-d]imidazol-6-yl)-3-methoxybenzamide]
